In the supplement of paper PMC10307832:

Experiments:
Experiment in all cases: relative viability (nuclei count vs DMSO), 5 days (fraction); higher = more cells survive
Wnt-C59 + Decitabine = compound: CC1=NC=CC(=C1)C2=CC=C(C=C2)CC(=O)NC3=CC=C(C=C3)C4=CN=CC=C4 [Wnt-C59] + Nc1ncn([C@H]2C[C@H](O)[C@@H](CO)O2)c(=O)n1 [Decitabine] (partner 2 µM)
In short: (§1)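 Lung cancer cell lines in 1536-well plates got either a single drug or a fixed anchor-drug dose together with five library-drug doses (not always all listed) in √10 steps, by pin tool, on the day after seeding. Nuclei were counted after 5 days, and relative viability is the treated-to-vehicle ratio of nuclei counts. Values are medians of duplicate plates.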

Lapatinib + Vorinostat = compound: CS(=O)(=O)CCNCc1ccc(-c2ccc3ncnc(Nc4ccc(OCc5cccc(F)c5)c(Cl)c4)c3c2)o1 [Lapatinib] + O=C(CCCCCCC(=O)Nc1ccccc1)NO [Vorinostat] (partner 1 µM)
In short: as §1

Lapatinib + OSI-027 = compound: CS(=O)(=O)CCNCc1ccc(-c2ccc3ncnc(Nc4ccc(OCc5cccc(F)c5)c(Cl)c4)c3c2)o1 [Lapatinib] + COc1cccc2cc(-c3nc([C@H]4CC[C@H](C(=O)O)CC4)n4ncnc(N)c34)[nH]c12 [OSI-027] (partner 0.5 µM)
In short: as §1

Lapatinib + Dasatinib = compound: CS(=O)(=O)CCNCc1ccc(-c2ccc3ncnc(Nc4ccc(OCc5cccc(F)c5)c(Cl)c4)c3c2)o1 [Lapatinib] + Cc1nc(Nc2ncc(C(=O)Nc3c(C)cccc3Cl)s2)cc(N2CCN(CCO)CC2)n1 [Dasatinib] (partner 0.075 µM)
In short: as §1

Row | Cell Line | relative viability (Wnt-C59 + Decitabine; first compound 0.001 µM) | relative viability (Wnt-C59 + Decitabine; first compound 0.01 µM) | relative viability (Wnt-C59 + Decitabine; first compound 0.03162 µM) | relative viability (Wnt-C59 + Decitabine; first compound 0.1 µM) | relative viability (Lapatinib + Vorinostat; first compound 0.02 µM) | relative viability (Lapatinib + Vorinostat; first compound 0.06325 µM) | relative viability (Lapatinib + Vorinostat; first compound 0.2 µM) | relative viability (Lapatinib + Vorinostat; first compound 0.6325 µM) | relative viability (Lapatinib + Vorinostat; first compound 2 µM) | relative viability (Lapatinib + OSI-027; first compound 0.02 µM) | relative viability (Lapatinib + OSI-027; first compound 0.06325 µM) | relative viability (Lapatinib + OSI-027; first compound 0.2 µM) | relative viability (Lapatinib + OSI-027; first compound 0.6325 µM) | relative viability (Lapatinib + OSI-027; first compound 2 µM) | relative viability (Lapatinib + Dasatinib; first compound 0.02 µM) | relative viability (Lapatinib + Dasatinib; first compound 0.06325 µM) | relative viability (Lapatinib + Dasatinib; first compound 0.2 µM) | relative viability (Lapatinib + Dasatinib; first compound 0.6325 µM) | relative viability (Lapatinib + Dasatinib; first compound 2 µM)
1 | PC-14 | 0.246 | 0.283 | 0.223 | 0.243 | 0.652 | 0.55 | 0.76 | 0.732 | 0.0919 | 0.464 | 0.743 | 0.824 | 0.794 | 0.152 | 0.25 | 0.198 | 0.251 | 0.159 | 0.0375
2 | RERF-LC-KJ | 0.711 | 0.727 | 0.742 | 0.735 | 0.543 | 0.632 | 0.673 | 0.647 | 0.601 | 0.532 | 0.344 | 0.424 | 0.401 | 0.315 | 0.812 | 0.545 | 0.732 | 0.75 | 0.36
3 | SK-LU-1 | 0.657 | 0.675 | 0.694 | 0.657 | 0.681 | 0.747 | 0.829 | 0.776 | 0.802 | 0.292 | 0.219 | 0.286 | 0.353 | 0.324 | 0.162 | 0.159 | 0.179 | 0.205 | 0.182
4 | SK-MES-1 | 0.386 | 0.403 | 0.366 | 0.355 | 0.967 | 0.98 | 1.15 | 1.18 | 0.369 | 0.472 | 0.453 | 0.6 | 0.578 | 0.256 | 0.243 | 0.143 | 0.157 | 0.19 | 0.126
5 | SW 900 | 0.49 | 0.43 | 0.492 | 0.402 | – | 0.516 | 0.476 | 0.468 | 0.408 | – | 0.576 | 0.532 | 0.496 | 0.488 | – | 0.435 | 0.479 | 0.595 | 0.373
6 | SW 1573 | 0.449 | 0.453 | 0.583 | 0.537 | – | 0.612 | 0.987 | 0.828 | 0.774 | 0.626 | 0.379 | 0.612 | 0.735 | 0.635 | 0.389 | 0.381 | 0.738 | 0.434 | 0.442
